According to ChEMBL document CHEMBL1128930, “4-cyanothiazolidides as very potent, stable inhibitors of dipeptidyl peptidase IV” (Bioorg Med Chem Lett, 1996):

Legend:
Dipeptidyl peptidase 4 = Dipeptidyl peptidase 4 (Homo sapiens, UniProt P27487); test: Inhibition of human Dipeptidyl peptidase IV
[1] = Half life period in aqueous solution; assay type: ADME; settings: for half-life: aqueous solution

Chain of Dipeptidyl peptidase 4 (P27487 whole entry): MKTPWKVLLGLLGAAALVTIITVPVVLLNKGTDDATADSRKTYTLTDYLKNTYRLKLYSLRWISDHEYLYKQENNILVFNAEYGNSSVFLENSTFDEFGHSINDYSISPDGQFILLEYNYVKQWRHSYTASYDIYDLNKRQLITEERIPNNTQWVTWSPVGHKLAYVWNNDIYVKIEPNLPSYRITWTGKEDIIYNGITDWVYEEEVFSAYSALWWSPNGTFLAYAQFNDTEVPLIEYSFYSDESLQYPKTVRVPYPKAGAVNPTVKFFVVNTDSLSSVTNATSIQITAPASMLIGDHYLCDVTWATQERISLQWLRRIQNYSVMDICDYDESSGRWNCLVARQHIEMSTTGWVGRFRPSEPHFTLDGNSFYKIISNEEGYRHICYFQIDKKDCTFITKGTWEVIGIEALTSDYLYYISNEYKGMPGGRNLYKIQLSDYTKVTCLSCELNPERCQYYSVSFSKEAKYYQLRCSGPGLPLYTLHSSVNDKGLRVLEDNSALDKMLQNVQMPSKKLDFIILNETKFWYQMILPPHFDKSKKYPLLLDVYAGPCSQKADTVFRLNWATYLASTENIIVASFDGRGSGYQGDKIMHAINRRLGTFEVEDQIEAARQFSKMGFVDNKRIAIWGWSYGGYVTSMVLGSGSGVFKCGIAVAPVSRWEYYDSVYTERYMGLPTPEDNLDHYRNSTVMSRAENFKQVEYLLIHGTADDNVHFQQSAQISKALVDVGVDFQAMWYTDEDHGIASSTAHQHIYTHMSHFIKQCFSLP

SMILES | Ki (Dipeptidyl peptidase 4) [nM] | half-life [1] [h] | T1/2 ([1]; buffer) [h]
CC[C@H](C)[C@H](N)C(=O)N1C[S+]([O-])C[C@H]1C#N (stereo in doubt; 7) | 34 | 1.25 | –
N#C[C@@H]1CSCN1C(=O)C(CCCCN)NC(=O)OCc1ccccc1 (stereo partly drawn) | 5 | > 48 | –
CC[C@H](C)[C@H](N)C(=O)N1C[S+]([O-])C[C@H]1C#N (stereo in doubt; 9) | 440 | – | 1.5
CCC(C)[C@H](N)C(=O)N1COC[C@H]1C#N (stereo partly drawn) | 450 | > 48 | –
N#C[C@@H]1CSCN1C(=O)C(N)C1CCCC1 (stereo partly drawn) | 0.5 | 5 | –
CCC(C)[C@H](N)C(=O)N1CSCCC1C#N (stereo partly drawn) | 6000 | > 48 | –
CCC(C)[C@H](N)C(=O)N1CCC[C@H]1C#N (stereo partly drawn) | – | 48 | –
